Measured values published in publication PMC12750995, “Conformational Dynamics in the Cell Membrane Interactions of Bispecific Targeted Degrader Therapeutics” (Journal of Medicinal Chemistry, 2025).

Tests used:
[1] = Equilibrium dialysis binding to HEK293 cell homogenate (fraction unbound); type: in vitro ADME; conditions: human, pH 7.4; fraction unbound in HEK293 cell homogenate, 10 × 10^6 cells/mL, 0.1 μM, 4 h, 37 °C; read-out: fu,hom
Protocol: (§1) The unbound fraction of a selected series of PROTACs was determined through equilibrium dialysis against the cell homogenate. HEK293 cells (ATCC, Manassas, VA) were grown in Dulbecco’s modified Eagle’s medium (DMEM) supplemented with 10% fetal bovine serum (FBS) at 37 °C, 95% relative humidity, and 5% CO2. Cell pellets were harvested using 0.05% trypsin and centrifuged at 260g for 5 min. The cells were resuspended in Dulbecco’s phosphate buffer (DPBS), counted using a Luna II cell counter (Logos Biosystems, Anyang, South Korea) and centrifuged at 260g. The supernatant was discarded, and cell pellets were stored at −80 °C prior to cell homogenate preparation. On the day of the experiment, cell pellets were thawed and resuspended in Hank’s balanced salt solution (HBSS) buffered with 20 mM HEPES (pH 7.4) to a concentration of 10 × 10^6 cells/mL. The cell suspension was homogenized using ultrasonication for 10 s at 20% intensity while kept on ice.
(§2) Compound stability was assessed by adding the compound-spiked cell homogenate to an empty well in the dialysis cassette. At the end of the experiment, these concentrations were compared to identical control samples stored at 4 °C. Mass balance was calculated at the end of each experiment. Further, in all wells, two control compounds (atorvastatin and lopinavir) were included to ensure that the assay plate was functional. All compounds were tested in triplicate in one experiment. Compound 2 was only detected on the cell homogenate side, and thus, the concentration on the buffer side was set to half of the lower limit of quantification to allow calculation of an approximate cell homogenate binding.
(§3) Final samples were matrix matched by taking 1 part sample and 1 part blank cell homogenate or buffer. Proteins were precipitated using 1 part matrix matched sample and 3 parts acetonitrile supplemented with 0.3% formic acid (FA) and 5 nM verapamil (internal standard), and this was diluted 1:1 with Milli-Q prior to centrifugation at 2500g for 20 min. Compound concentrations in the supernatant were quantified using a reversed phase system with a Waters Acquity UPLC HSS T3 column (50 × 2.1 mm, 1.8 μm) in an Aquity UPLC connected to a Xevo TQ-XS mass spectrometer (Waters Corp., Milford, MA). The chromatographic run was done using solvent A (0.1% FA in Milli-Q) and solvent B (0.1% FA in acetonitrile Optima LC/MS grade (Fisher Scientific)) with isocratic conditions between 0 and 0.3 min (99.8% solvent A and 0.2% solvent B), a linear gradient between 0.3 and 1.3 min (from 0.2% to 95% solvent B), isocratic conditions between 1.3 and 1.8 min (95% solvent B), and equilibration back to start conditions between 1.8 and 2.3 min. Mass transitions, cone voltages, and collision energies can be found in Table S4.

HEK293 cell homogenate = test: as above; type: in vitro ADME; conditions: equilibrium dialysis, HEK293 cell homogenate, 0.1 μM
Protocol: as §1, §2, §3

[2] = Caco-2 A-B passive permeability with preincubation, transporter-inhibited; type: in vitro ADME; conditions: human, Caco-2, with 50 μM quinidine, 30 μM benzbromarone, 20 μM sulfasalazine; Figure 3A grouping; read-out: Passive Caco-2 cell permeability group (high, moderate or low)
Protocol: (§4) Transepithelial transport of the compounds through a Caco-2 monolayer (ATCC, HTB-37) was determined in 14–18 days old monolayers in Costar 24-well cell culture cluster plates (polycarbonate membrane, 0.4 μm pore size). Chamber volumes were 200 and 800 μL on the apical and basolateral sides of the cell monolayers, respectively, and all incubations were performed with prewarmed buffers in an orbital shaking incubator at 480 rpm and 37 °C. Prior to the assay, cells were washed with HBSS supplemented with 25 mM HEPES (HBSS-HEPES), pH 7.4, to remove the culture medium. After 15 min of equilibration, the transepithelial electrical resistance (TEER) was determined to assess acceptance of the cell plates into the assay. A second measurement and a lucifer yellow leakage determination was carried out after performing all the transport experiments to monitor integrity of the cell monolayers throughout the study.
(§5) Before the permeability study, to minimize nonspecific binding of PROTACs to the cells and plates, the cells were preincubated with 10 μM compound solution on the apical (donor) side for 1 h, analogous to Muschong et al. Then, cells were washed twice with HBSS-MES pH 6.5 containing 1% BSA. Then, permeability in the absorptive direction (A–B, apical-to-basolateral) was studied over 120 min at a 10 μM test compound concentration. The compound solutions were freshly prepared from DMSO stock solutions diluted into HBSS supplemented with 25 mM MES, pH 6.5, containing efflux inhibitors (50 μM quinidine, 30 μM benzbromarone, and 20 μM sulfasalazine); the final solvent concentration was always 0.5%.
(§6) Samples from the donor side (10 μL) were drawn immediately after the addition of the test compound and after 45 and 120 min. The donor samples were diluted 1:10 in HBSS. From the receiver compartment, an amount of 100 μL was withdrawn after 45 and 120 min and replaced with fresh HBSS-HEPES, pH 7.4.
(§7) Upon completion of the study, all samples were quenched with 300 μL of acetonitrile and analyzed subsequently using UPLC/MS/MS. The permeability was determined as the appearance rate of the compound on the receiver side, in relation to donor concentration, according to eq 4 Papp=dQ/[(dt)(T)]×A/D where dQ/[(dt)(T)] is the slope of the permeation profile across the Caco-2 cell monolayers, A is the surface area of the Transwell insert (0.33 cm^2), and D is the concentration on the donor side. Following the permeability experiments, recovery from the donor and receiver compartments was calculated using eq 5 recovery(%)(0−120min)=CR120×VR+CR45×0.1+CD45×0.01+CD120×VD/D0×VD×100

Caco-2 monolayer = test: as above; type: in vitro ADME; conditions: recovery from donor and receiver compartments, 0-120 min
Protocol: as §4, §5, §6, §7

[3] = set-up: method as in earlier work; conditions: rodents; tissue-to-plasma distribution ratios (Kp) indicating substantial binding to tissue components; ref 16 (ARV-110), ref 17 (A947); cited from earlier work

fraction unbound at 4 h, 0.1 μM [1]	fu,hom mass balance (HEK293 cell homogenate)	Papp A→B at 120 min, 10 μM [2]	Papp Recovery (%) (0-120 min) (Caco-2 monolayer)	Structure (SMILES)	tissue distribution [3]
–	–	–	–	N#Cc1ccc(O[C@H]2CC[C@H](NC(=O)c3ccc(N4CCC(CN5CCN(c6cc7c(cc6F)C(=O)N(C6CCC(=O)NC6=O)C7=O)CC5)CC4)nn3)CC2)cc1Cl (stereo partly shown) [ARV-110]	widespread and extensive tissue distribution
0.396	76%	5 to 100 nm/s	84%	CC(=O)c1c(C)c2cnc(Nc3ccc(N4CCN(CCOCCOCCOCCNC(=O)COc5cccc6c5C(=O)N([C@H]5CCC(=O)NC5=O)C6=O)CC4)cn3)nc2n(C2CCCC2)c1=O [Compound 5]	–
0.2	66%	5 to 100 nm/s	78%	CCCOc1cccc(Oc2cc3c(cc2NS(=O)(=O)c2cccc(C(=O)NCCOCCOCCOCC(=O)N[C@@H](C(=O)N4C[C@@H](O)C[C@@H]4C(=O)NCc4ccc(-c5scnc5C)cc4)C(C)(C)C)c2)n(C)c(=O)n3C)c1 [Compound 4]	–

Structure (SMILES)	fraction unbound at 4 h, 0.1 μM [1]	fu,hom mass balance (HEK293 cell homogenate)	Papp A→B at 120 min, 10 μM [2]	Papp Recovery (%) (0-120 min) (Caco-2 monolayer)	tissue distribution [3]
Cc1ncsc1-c1ccc(CNC(=O)[C@@H]2C[C@@H](O)CN2C(=O)[C@@H](NC(=O)COCCCCOc2ccc(-c3ccc(N4C(=S)N(c5ccc(C#N)c(C(F)(F)F)c5)C(=O)C4(C)C)cc3)cc2)C(C)(C)C)cc1 [Compound 2]	0.016	109%	< 5 nm/s	87%	–
